# Measurements reported in publication PMC11054271, “ABCG2 Transports the Flukicide Nitroxynil and Affects Its Biodistribution and Secretion into Milk” (Pharmaceutics, 2024).
# Read-outs that look alike come from different tables or passages of the source.
# How the values were obtained:
# murine Abcg2 [1] = test system: T1, murine Abcg2; test: Tissue distribution in wild-type and Abcg2−/− male mice; format: in vivo; conditions: FVB/N, mouse, sc, wild-type male mice, 10 mg/kg s.c.
# T1 construct: from tissue; host or cells: whole animal: wild-type vs Abcg2-/- mice, >99% FVB/N background
# Protocol: (§1) All in vivo experiments were carried out using wild-type and Abcg2^−/− mice aged between 8 and 17 weeks, all of >99% FVB/N genetic background, generated and gently supplied by A. H. Schinkel (Netherlands Cancer Institute). Mice were housed and handled complying with institutional and ARRIVE guidelines and European legislation (EU Directive 2010/63/EU for animal experiments). Additionally, experimental procedures were approved by the Animal Care and Use Committee of the University of León and the Junta de Castilla y León (ULE_011_2019).
# (§2) For pharmacokinetic experiments, a single dose of nitroxynil at 10 mg/kg was administered subcutaneously to wild-type and Abcg2^−/− male mice (n = 4–5, for each time point). Distomicide® (250 mg/mL) commercial solution was dissolved in saline (sodium chloride 0.9%) and dosed at 200 μL per 30 g body weight. Blood samples were collected at different time points (0.5, 3, 4.5, 6, 24, 48 and 96 h) and heparinized blood samples were centrifugated for 15 min at 3000× g. Organs were also collected at 24 and 96 h after euthanasia. Linear trapezoidal rule was used to calculate the area under the plasma concentration–time curve (AUC) parameter.
# (§3) Plasma, milk and tissue samples from each animal were individually processed and analyzed without pooling, while samples from transport assays were not processed. Tissue samples were homogenized in a mixture of 50% water/50% methanol HCl 0.5% (v/v); 1 mL solution per 0.1 g tissue. The entire amount of collected milk (74.7–295.1 mg) and 100 μL plasma and tissue homogenates were processed. To each sample, 10 μL of a nitrofurantoin solution (10 μg/mL for plasma and milk and 2 μg/mL for homogenized tissues) was added as an internal standard and 150 μL acetonitrile was used to precipitate the proteins. The mixture was vortexed horizontally for 15 min and centrifugated at 10,000× g for 5 min at 4 °C. Supernatant was transferred to a new tube and dried at 40 °C under N2 stream. Samples were reconstituted in 100 μL of mobile phase and 50 μL was injected into HPLC. Standards were subjected to the same procedures as samples.
# (§4) Waters 2695 separation module and Waters 2998 UV photodiode array detector set at 270 nm were used for samples analysis. Chromatographic conditions for nitroxynil detection were based on previously described methods, with minor modifications. Chromatographic separation was achieved on a reverse-phase column (Synergy 4 μm Hydro–RP 80 Å, 250 × 4.60 mm; Phenomenex®, Torrance, CA, USA) using an isocratic binary mobile phase consisting of 25 mM potassium phosphate monobasic (KH2PO4), pH 4: acetonitrile (70:30 for culture samples and 80:20 for animal samples) at a flow rate of 1 mL/min. Autosampler and column temperature were 4 °C and 40 °C, respectively. Limit of detection (LOD) and quantification (LOQ) were calculated as previously described. For cell culture samples, LOD and LOQ were 0.003 μg/mL and 0.007 μg/mL, respectively. For in vivo samples, LOD was in the range of 0.01–0.07 μg/mL and LOQ in the range of 0.03–0.15 μg/mL.
# murine Abcg2 [2] = biological target: T2, murine Abcg2 (Mus musculus, UniProt Q7TMS5); test: as above; format: in vivo; parameters: from tissue; host or cells: whole animal: wild-type vs Abcg2-/- mice, >99% FVB/N background
# T2 sequence (Q7TMS5 1-657): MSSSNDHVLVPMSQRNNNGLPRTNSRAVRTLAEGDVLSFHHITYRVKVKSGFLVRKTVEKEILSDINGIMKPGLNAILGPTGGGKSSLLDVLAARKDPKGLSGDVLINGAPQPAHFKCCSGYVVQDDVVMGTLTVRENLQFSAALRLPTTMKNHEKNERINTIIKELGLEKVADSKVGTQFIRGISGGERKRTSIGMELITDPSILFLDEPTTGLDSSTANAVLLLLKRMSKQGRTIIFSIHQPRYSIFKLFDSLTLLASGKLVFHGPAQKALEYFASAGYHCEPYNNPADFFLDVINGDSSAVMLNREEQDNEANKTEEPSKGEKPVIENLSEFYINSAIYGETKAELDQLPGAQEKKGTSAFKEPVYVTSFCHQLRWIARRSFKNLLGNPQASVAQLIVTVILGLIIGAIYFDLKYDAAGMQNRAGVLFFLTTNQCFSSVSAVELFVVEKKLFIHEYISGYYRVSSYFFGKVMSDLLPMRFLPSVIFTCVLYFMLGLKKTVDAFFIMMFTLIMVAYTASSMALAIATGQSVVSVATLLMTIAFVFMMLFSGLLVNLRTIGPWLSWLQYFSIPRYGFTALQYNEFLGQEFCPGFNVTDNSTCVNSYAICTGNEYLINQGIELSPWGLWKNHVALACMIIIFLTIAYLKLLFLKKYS
# Protocol: as §1, §2, §3, §4
# [3] = wild-type male mice, 96 h, 10 mg/kg s.c.
structure (smiles),measurement,setting,value
N#Cc1cc(I)c(O)c([N+](=O)[O-])c1 [nitroxynil],Kp at 96 h,"murine Abcg2 [1]; kidney and plasma, 96 h, read-out: Tissue/plasma ratio, kidney",0.06 ± 0.01
same,concentration at 24 h,"murine Abcg2 [1]; kidney, read-out: Tissue concentration, kidney",5900 ± 1200 ng/g
same,concentration at 96 h,"murine Abcg2 [1]; kidney, 96 h",900 ± 100 ng/g
same,concentration at 24 h,"murine Abcg2 [1]; liver, read-out: Tissue concentration, liver",900 ± 300 ng/g
same,concentration at 24 h,"murine Abcg2 [1]; small intestine, read-out: Levels of nitroxynil in small intestine",1.1 ± 0.2 µg/mL
same,concentration at 24 h,"murine Abcg2 [1]; small intestine, read-out: Tissue concentration, small intestine",1100 ± 200 ng/g
same,concentration at 24 h,"murine Abcg2 [1]; spleen, read-out: Accumulation in spleen",1.4 ± 0.3 µg/mL
same,concentration at 24 h,"murine Abcg2 [1]; spleen, read-out: Tissue concentration, spleen",1400 ± 300 ng/g
same,concentration at 24 h,"murine Abcg2 [1]; testis, read-out: Concentration in testis",2.6 ± 0.2 µg/mL
same,concentration at 24 h,"murine Abcg2 [1]; testis, read-out: Tissue concentration, testis",2600 ± 200 ng/g
same,"Concentration in kidney, small intestine and testis, fold higher in Abcg2−/− mice","murine Abcg2 [2]; abstract statement, time not given",~2 fold
same,"Small intestine levels, fold higher in Abcg2−/− compared with wild-type","murine Abcg2 [2]; male mice, 24 h, 10 mg/kg s.c.",1.4 fold
same,"Spleen accumulation, fold higher in Abcg2−/− compared with wild-type","murine Abcg2 [2]; male mice, 24 h, 10 mg/kg s.c.",1.7 fold
same,"Testis concentration, fold higher in Abcg2−/− compared with wild-type","murine Abcg2 [2]; male mice, 24 h, 10 mg/kg s.c.",~1.6 fold
same,"Tissue concentration, liver",murine Abcg2 [2]; [3],<LOQ
same,"Tissue concentration, small intestine",murine Abcg2 [2]; [3],<LOQ
same,"Tissue concentration, spleen",murine Abcg2 [2]; [3],<LOQ
same,"Tissue concentration, testis",murine Abcg2 [2]; [3],<LOQ
